In the METLIN SMRT retention time set (Domingo-Almenara et al. 2019):

assay: gradient 5% acetonitrile 3 min, to 50% in 2 min, to 85% in 15 min, held 3 min, 100 µL/min; details: column: Zorbax Extend-C18 2.1 x 50 mm; eluents: water / acetonitrile, 0.1% formic acid
Procedure, shortened: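 Over 3 months, pure standards in mixtures of ~100 molecules were run by HPLC coupled to a quadrupole time-of-flight mass spectrometer in positive and negative ionization mode. The column was a Zorbax Extend-C18 (2.1 × 50 mm, 1.8 μm) at 100 μL/min, eluted with water and acetonitrile each holding 0.1% formic acid, with 40 μL dead and 900 μL dwell volumes. Retention time was determined from adduct peaks chosen by software and checked manually.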

Structure (SMILES)	RP-LC retention time [s]
O=C(NC1CC1)C1CCc2sc(C(=O)N3CCCCCC3)cc2C1 (stereo unspecified)	736
COc1ccc(CN2C(=O)CN(C3CCCCC3)C(=O)C2c2cccs2)cc1 (stereo unspecified)	915
O=C(C1CCN(c2nc3ccc(-c4cccc(F)c4)nc3s2)CC1)N1CCCCC1	1070
O=C(NC1CCCCC1)C1CCN(C(=O)c2ncn3c2COC(c2ccc(F)cc2)C3)CC1 (stereo unspecified)	784
CN1C(=O)COc2ccc(-c3csc(NC(=O)C4CC4)n3)cc21	778
CCCN1CCN(c2cc(C(=O)O)c3cc(NS(=O)(=O)c4ccc(F)c(F)c4)ccc3n2)CC1	651
Cc1cc(-c2nnc(-c3ccccc3)o2)c(C)n1CC(=O)Nc1cc(F)cc(F)c1	747
COc1ccc(C2Cn3nnc(-c4nc(-c5ccc(OCc6ccccc6)cc5)no4)c3CO2)cc1 (stereo unspecified)	1340
CCn1c(=O)n(CC(=O)N2CCCC2)c(=O)c2cnc(-c3ccc(Cl)cc3)nc21	1010
CCN1CCN(c2cc(C)c3cc(NC(=O)COc4ccc(OC)cc4)ccc3n2)CC1	597
CC(C)CN1C(=O)c2ccccc2C(C(=O)NCCCN2CCOCC2)C1c1cccs1 (stereo unspecified)	644
COc1ccc(-c2noc(CN3C(=O)COc4ccc(Cl)cc43)n2)cc1OC	971
CCCc1cc(SCC(=O)Nc2nccs2)ncn1	692
CC(C)(C)OC(=O)N1CCN(c2ncc(C(=O)NCc3ccccc3)c(N)n2)CC1	743
COC(=O)c1ccc(NS(=O)(=O)c2cc3n(c2)CCN(C(C)C)C3=O)cc1	731
CC1CCN(C(=O)C2CCN(c3nc4ccc(-c5cccnc5)nc4s3)CC2)CC1	630
CC(=O)Nc1cccc(C2OC(c3cc(Br)ccc3OC(C)=O)=NN2C(C)=O)c1 (stereo unspecified)	828
Cn1c(=O)n(C)c2cc(CNc3ccc(N4CCOCC4)cc3)ccc21	600
Cc1ccc(Nc2c(-c3nc(C)no3)cnc3nc(C)ccc23)c(C)c1	825
CCc1noc(NC(C)=O)c1-c1ccc(C)c(S(=O)(=O)Nc2cc(OC)c(OC)c(OC)c2)c1	761
CCc1sc(NC(=O)c2cc3c([nH]c2=O)CCCC3=O)nc1-c1ccc(C)c(C)c1	1030

Structure (SMILES)	RP-LC retention time [s]
Fc1ccc(-c2noc(Cc3nnc(-c4cccc(Br)c4)o3)n2)cc1	1120
Cn1c(N2CCN(C(=O)c3ccc(F)c(F)c3)CC2)cc(=O)n(C)c1=O	656
CC(=O)Nc1ncncc1N1CCC(C(=O)NCc2cccc(C(F)(F)F)c2)CC1	698
CC(=O)Nc1ccc(SCc2ccccn2)nn1	527
CC(CCNc1ccc(-c2nc(-c3cccc(F)c3)no2)cn1)N1CCCCCC1 (stereo unspecified)	782
O=C(NC1CCCC1)N1CCC(c2noc(-c3ccccc3)n2)C1 (stereo unspecified)	868
Cn1cc(S(=O)(=O)N2CCC(C(=O)N3CCCC3)CC2)cc1C(=O)N1CCCCC1	681
O=C(NCC(c1cccs1)S(=O)(=O)c1cccs1)NC1CCCCC1 (stereo unspecified)	790
Cn1ncc2c(N3CCSCC3)nc(C(=O)N3CCN(c4ccc(F)cc4)CC3)nc21	841
CCCCNC(=O)C1CCCN(C(=O)Nc2ccc(NC(=O)Nc3ccccc3)cc2)C1 (stereo unspecified)	812
CC(C)CCNC(=O)Cn1nc2c3cc(-c4ccc(F)cc4)nn3ccn2c1=O	876
COc1ccc(N2CCN(C(=O)c3csc(C(=O)NC4CC4)n3)CC2)cc1	700
CCc1ccc(NC(=O)C2CCCN(c3nccnc3Sc3ccc(C)cc3)C2)cc1 (stereo unspecified)	1290
COc1cccc(OCC(O)CN2CCN(c3ccc(Cl)cc3)CC2)c1 (stereo unspecified)	724
CCc1nc(OCC(=O)NCc2cccc(C)c2)c2c(C)c(C)oc2n1	947
CCOC(=O)Cn1c(=O)c2c(nc3n2CCN3c2ccc(OC)cc2)n(C)c1=O	826
Cc1ccn(CC(=O)NC2CCN(c3ccc(=O)n(CC4CC4)n3)C2)n1 (stereo unspecified)	631
CC(C)C(=O)N1CCCCCNC(=O)[C@@H]2CCCC[C@@H]21	700
NC(=O)c1ccc(Oc2ccc(C(N)=O)cc2)cc1	654
CN1C(=O)C2(CCN(C(=O)Nc3ccccc3)C2)c2ccccc21 (stereo unspecified)	764
COc1ccc(CNC(=O)C2CCN(C(=O)c3nn(C)c4c3CN(C(=O)C(C)C)CC4)CC2)cc1	662

More lines, now with the values ahead:

RP-LC retention time [s]	Structure (SMILES)
743	CC1CC(=O)Nc2ccccc2N1C(=O)c1ccc(Cl)cc1 (stereo unspecified)
761	COCCN1C(=O)CCc2cc(NC(=O)CCc3ccccc3)ccc21
1190	CCOc1ccc(OCC)c(NC(=O)CSc2nccnc2Oc2ccccc2)c1
630	Cc1cc(C)c(C)c(S(=O)(=O)Nc2ccc(C(=O)NCc3ccccn3)cc2)c1C
838	NNC(=O)CSc1nc2scc(-c3ccccc3)c2c(=O)n1-c1ccccc1
784	O=C(NCCc1ccco1)c1nc(Nc2ccc(F)cc2)c2ccccc2n1
653	CCC(=O)N1CCc2cc(-c3ccc(C(=O)N4CCN(c5ccccn5)CC4)cc3)ccc21
922	CSc1cccc(NC(=O)N(C)CCc2noc(-c3ccc(F)cc3)n2)c1
1010	CCc1nn2c(CNS(=O)(=O)Cc3ccccc3Cl)c(-c3ccccc3)nc2s1
970	Cn1cnc2c(C(=O)Nc3cccc(C(F)(F)F)c3)nn(-c3ccccc3)c2c1=O
580	CN(C)c1cccc(C(=O)NCc2[nH]nc3ccccc23)c1
997	O=C(Nc1ccc2ncsc2c1)c1sc2ccccc2c1Cl
1060	COc1ccc(-n2ncc3c(=O)n(Cc4nc(-c5ccccc5C)no4)cnc32)cc1
852	COc1ccc(C)cc1NC(=O)Cn1c(=O)c(CCC(=O)NCC(C)C)nc2ccccc21
671	CN(C)c1ccc(C(=O)N2CCc3cn(C)c4cccc(c34)C2)cc1
846	COc1ccc2[nH]cc(CCNC(=O)c3c(-c4ccccn4)noc3C)c2c1
807	COC(=O)CNC(=O)c1cc2c(=O)n(CC(C)C)c3ccccc3n2n1
878	CCc1ccc(NC(=O)N2CCCC(C)(C(=O)NCc3ccccc3)C2)cc1 (stereo unspecified)
836	O=C(NCc1ccco1)c1cccc2c1CCN2C(=O)c1ccc(F)cc1
706	COc1ccc(NC(=O)Cn2ccc3sccc3c2=O)cc1
980	Cc1noc(-c2ccc(NC(=O)c3cnn(-c4ccccc4)n3)cc2)n1
911	CCN1CCN(c2cc(-c3nc(-c4ccc(Cl)cc4)no3)c3ccccc3n2)CC1
808	CCn1nc(CNC(=O)c2ccc(C#N)cc2)c2ccccc21
820	COc1ccc(C(=O)N2CCC(COc3ccc(C(=O)NC(C)C)cc3)CC2)cc1
